In the supplement of paper PMC11061612:

Key:
[1] = tested on: NCI-H1755 (Lung Adenocarcinoma); assay: combination Emax (second highest fraction inhibited in the dose matrix, 72 h); higher = more inhibition; extreme values may be limits of the assay
Method in brief: (§1)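 Bliss excess equals the observed combination effect minus the expected value EA + EB − EA·EB, where EA and EB are the effects of each agent alone. Combination Emax is the second-highest inhibition within the matrix. Inhibition was scaled from CellTiter-Glo 2.0 luminescence, with 0 set by vehicle wells and 1 by blank wells, after 72 hours of two-drug dosing of cells plated in 1536-well plates.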

[2] = tested on: NCI-H810 (Non-Small Cell Lung Carcinoma); assay: as above
Method in brief: as §1

[3] = tested on: FLO-1 (Esophageal Adenocarcinoma); assay: as above
Method in brief: as §1

[4] = tested on: OV-90 (Ovarian Carcinoma); assay: Bliss excess, mean over the matrix (fraction); higher = more synergy
Method in brief: as §1

[5] = tested on: KYSE-70 (Esophageal Squamous Cell Carcinoma); assay: as above
Method in brief: as §1

[6] = tested on: KYM-1 (Rhabdomyosarcoma); assay: as above
Method in brief: as §1

[7] = tested on: LOUCY (T-Lymphoblastic Leukemia); assay: as above
Method in brief: as §1

[8] = tested on: NCI-H1755 (Lung Adenocarcinoma); assay: as above
Method in brief: as §1

[9] = tested on: LAMA-84 (Chronic Myelogenous Leukemia); assay: as above
Method in brief: as §1

[10] = tested on: HuO-3N1 (Osteosarcoma); assay: as above
Method in brief: as §1

[11] = tested on: CHL-1 (Melanoma); assay: as above
Method in brief: as §1

[12] = tested on: RMG-I (Ovarian Carcinoma); assay: as above
Method in brief: as §1

[13] = tested on: ES-2 (Ovarian Carcinoma); assay: as above
Method in brief: as §1

[14] = tested on: COLO-684 (Endometrial Carcinoma); assay: as above
Method in brief: as §1

[15] = tested on: PC-14 (Lung Adenocarcinoma); assay: as above
Method in brief: as §1

[16] = tested on: Becker (Low Grade Glioma); assay: as above
Method in brief: as §1

[17] = tested on: SK-MM-2 (Plasma Cell Myeloma); assay: as above
Method in brief: as §1

[18] = tested on: SJRH30 (Rhabdomyosarcoma); assay: as above
Method in brief: as §1

[19] = tested on: NCI-H810 (Non-Small Cell Lung Carcinoma); assay: as above
Method in brief: as §1

[20] = tested on: CML-T1 (Chronic Myelogenous Leukemia); assay: as above
Method in brief: as §1

`CS(=O)(=O)CCNCc1ccc(-c2ccc3ncnc(Nc4ccc(OCc5cccc(F)c5)c(Cl)c4)c3c2)o1` [Lapatinib] + NC1(c2ccc(-c3nc4ccn5c(=O)[nH]nc5c4cc3-c3ccccc3)cc2)CCC1 [MK-2206] (first compound max 10 µM, 7x7, partner max 10 µM) was tested, and the “combination Emax” value [1] was 0.88, the “combination Emax” value [2] was 0.389 and the “combination Emax” value [3] was 0.793. For the same molecule, the Bliss excess [4] was -0.0225, the Bliss excess [5] was 0.0087 and the Bliss excess [6] was 0.0255. For the same molecule, the Bliss excess [7] was -0.0343, the Bliss excess [8] was -0.0085 and the Bliss excess [9] was -0.046. For the same molecule, the Bliss excess [10] was -0.0437, the Bliss excess [11] was 0.0221 and the Bliss excess [12] was -0.0219. The Bliss excess [13] was -0.131, the Bliss excess [14] was 0.0322 and the Bliss excess [15] was 0.0188. For the same molecule, the Bliss excess [16] was 0.0516, the Bliss excess [17] was 0.0329 and the Bliss excess [18] was 0.0103. It also gave a Bliss excess [19] of -0.0152 and a Bliss excess [20] of -0.016.
